System: E. coli
Assay: Antibiotic susceptibility test of a single living bacterium in whole blood by single-bacterium mass spectrometry (metabolite signal change)
Assay type: cell-based, Escherichia coli
Conditions: E. coli from whole blood supernatant; 10 μL of 8 mg/mL kanamycin or 10 μL of 2 mg/mL norfloxacin added into 500 μL; 30 min at 37° C.; FIG. 12
Method: 1 mL of whole blood was taken and placed in a centrifuge tube, centrifuged at 3000 rpm for 8 min; the blood cell pellet was discarded; 10 μL of 8 mg/mL kanamycin and 10 μL of 2 mg/mL norfloxacin were respectively added into 500 μL of the supernatant containing the bacterium, and incubated with shaking at 37° C. After 30 min of incubation, the supernatant was centrifuged at 10,000 rpm for 8 min; the supernatant was discarded, and the pellet was resuspended in 100 μL of deionized water; the solution containing the bacterium not having been incubated with the antibiotic was used as a reference group, and the same operations as above were performed. […]
10 μL of 100 μM Acridine Orange as a staining agent was added into the solution containing the bacterium obtained in step (1) and step (2) to perform staining for 15 min. […] The resuspended solution containing the bacterium was dropped onto a polylysine slide and leave for 30 minutes to allow the bacterium to be adsorbed and fixed on the polylysine slide, and then the polylysine slide was rinsed with deionized water and dried at room temperature; the location of bacteria was observed under a fluorescence microscope. […]

## CCn1cc(C(=O)O)c(=O)c2cc(F)c(N3CCNCC3)cc21 [norfloxacin]
  change of alanyl-threonine (m/z 191) signal in a single bacterium after incubation with antibiotic: significantly reduced

From patent publication US20240352502A1, “ANALYTICAL METHODS FOR BACTERIAL IDENTIFICATION AND ANTIBIOTIC SUSCEPTIBILITY TESTING IN BIOLOGICAL SAMPLES” (UNIVERSITY OF SCIENCE AND TECHNOLOGY OF CHINA, priority 2021, published 2024)
